{"source": "patent US20260240876A1", "about": "“TREATMENT OF SLEEP APNEA WITH CBD” (Harmony Biosciences Management, Inc., priority 2021, published 2026)", "system": "child and adolescent patients with DEEs", "test": "BELIEVE: Sleep Disturbance Scale for Children (SDSC)", "assay_type": "in vivo, human", "details": "Week 26, negative = improvement, vs revised Baseline mean of completers", "experimental": "This was a sequential, multi-stage, open-label, multi-national, multiple-center, multiple-dose study to assess the long-term safety, tolerability, and efficacy of ZYN002 (transdermal CBD gel) in child and adolescent epilepsy patients from 3 to 18 years of age having seizures associated with developmental and epileptic encephalopathies (DEE) according to the International League Against Epilepsy (ILEA) classification (Scheffer et al. 2017). The study was conducted to evaluate efficacy of ZYN002 in DEE patients with ASD. The objective of the study also included evaluating the effects of ZYN002 transdermal CBD gel on QoL, sleep, and caregiver qualitative assessment in child and adolescent patients with DEEs.\n• Change from baseline to the end of Period A in the SDSC", "data": [{"smiles": "C=C(C)C1CCC(C)=CC1c1c(O)cc(CCCCC)cc1O", "note": "(stereo not shown) [CBD, 2-[3-methyl-6-(1-methylethenyl)-2-cyclohexen-1-yl]-5-pentyl-1,3-benzenediol]", "values": [{"measurement": "SDSC Sleep Breathing Disorders (SBD), Change from Baseline", "setting": "All Patients (DEE)", "result": "no significant change"}, {"measurement": "SDSC Sleep Breathing Disorders (SBD), Change from Baseline", "setting": "DEE Patients >70 Total Score", "result": "no significant change"}, {"measurement": "SDSC Sleep Breathing Disorders (SBD), Change from Baseline", "setting": "DEE-ASD Patients >70 Total Score", "result": "−6.7"}, {"measurement": "SDSC Sleep Breathing Disorders (SBD), Change from Baseline", "setting": "DEE-ASD Patients", "result": "−3.9"}]}]}
